Measured values from patent US20240148821A1, “PHARMACEUTICAL USE OF CYCLIC PEPTIDE COMPOUND” (CHUGAI SEIYAKU KABUSHIKI KAISHA, priority 2021, published 2024).
Numbered stars: 1 amine (or outer) side, 2 acyl side, 3 side chain; on linkers, the order of the positions; unused ones are H or OH. Bridge positions count the residues as written; N and C are the ends. Square brackets hold non-standard residues; d marks the D form. Peptide text beside a SMILES is read from it. * marks the point of attachment. hPhe(3,5-F2-4-CF3) = N[C@@H](CCc1cc(F)c(C(F)(F)F)c(F)c1)C(=O)O; hPhe(3-Cl-4-CF3) = N[C@@H](CCc1ccc(C(F)(F)F)c(Cl)c1)C(=O)O; hPhe(3-F,4-CF3) = N[C@@H](CCc1ccc(C(F)(F)F)c(F)c1)C(=O)O; NEtPhe(4-CF3) = CCN[C@@H](Cc1ccc(C(F)(F)F)cc1)C(=O)O; NMePhe(4-CF3) = CN[C@@H](Cc1ccc(C(F)(F)F)cc1)C(=O)O; hPhe(4-CF3) = N[C@@H](CCc1ccc(C(F)(F)F)cc1)C(=O)O; Pro(cis-4-Ph) = O=C(O)[C@@H]1C[C@H](c2ccccc2)CN1; NMePhe(4-Cl) = CN[C@@H](Cc1ccc(Cl)cc1)C(=O)O; X29 = O=C([C@H](CCc1cc(Cl)ccc1F)N[*:1])[*:2]; NMedβ3hAla = C[C@H](CC(=O)[*:2])N(C)[*:1]; NMeGly(cPent) = CN[C@H](C(=O)O)C1CCCC1; Pro(4,4-F2) = O=C(O)[C@@H]1CC(F)(F)CN1; mXylylene = c1cc(C[*:1])cc(C[*:2])c1; NMeCha = CN[C@@H](CC1CCCCC1)C(=O)O; cisHyp = O=C(O)[C@@H]1C[C@H](O)CN1; Hyp = O=C(O)[C@@H]1C[C@@H](O)CN1; NEtLeu = CCN[C@@H](CC(C)C)C(=O)O; NMeChg = CN[C@H](C(=O)O)C1CCCCC1; NMeF = CN[C@@H](Cc1ccccc1)C(=O)O; NMeI = CC[C@H](C)[C@H](NC)C(=O)O; X58 = CNCCOCCN(CC(=O)[*:2])[*:1]; NMeE = CN[C@@H](CCC(=O)O)C(=O)O; NMeD = CN[C@@H](CC(=O)O)C(=O)O; NMeL = CN[C@@H](CC(C)C)C(=O)O; NMeV = CN[C@H](C(=O)O)C(C)C; d(β3hA) = C[C@@H](N)CC(=O)O; Azetidin(1-yl) = C1CN(*)C1; Pip = O=C(O)[C@@H]1CCCCN1; Morpholide = C1CN(*)CCO1; NMeA = CN[C@@H](C)C(=O)O; Piperidide = C1CCN(*)CC1; dNMeA = CN[C@H](C)C(=O)O; Ac5c = NC1(C(=O)O)CCCC1; Aze = O=C(O)[C@@H]1CCN1; Ac4c = NC1(C(=O)O)CCC1; X9 = c1cncc(C*)c1; Sar = CNCC(=O)O

These compounds were tested against protein-protein interaction between Kras and SOS1 (biotin-tagged human Kras loaded with GDP, His-tagged human SOS1) (Homo sapiens (Human), UniProt P01116, G12D) (assay: Protein-protein interaction inhibition between Kras and SOS1 (KrasG12D-SOS PPI) using AlphaScreen). Settings: AlphaScreen; biotin-tagged human Kras loaded with GDP, His-tagged human SOS1; read-out: KRAS G12D-SOS PPI IC50.
Format: biochemical

Compound | IC50
CC[C@H](C)[C@@H]1NC(=O)[C@H](CC(C)C)N(C)C(=O)C[C@@H](C(=O)N(C)C)N(C)C(=O)[C@H](C2CCCC2)N(C)C(=O)C2(CCCC2)NC(=O)CN(CCOCCNC)C(=O)[C@H](CCc2ccc(C(F)(F)F)c(Cl)c2)NC(=O)CN(C)C(=O)[C@H](CC2CCCCC2)N(C)C(=O)[C@@H]2CCN2C(=O)[C@H](C)N(C)C1=O [Compound 2183, (3S,6S,9S,13S,16S,25S,31S,34S)-25-[2-[3-chloro-4-(trifluoromethyl)phenyl]ethyl]-31-(cyclohexylmethyl)-16-cyclopentyl-9-isobutyl-N,N,3,4,10,14,17,29,32-nonamethyl-23-[2-[2-(methylamino)ethoxy]ethyl]-6-[(1S)-1-methylpropyl]-2,5,8,11,15,18,21,24,27,30,33-undecaoxo-spiro[1,4,7,10,14,17,20,23,26,29,32-undecazabicyclo[32.2.0]hexatriacontane-19,1′-cyclopentane]-13-carboxamide] ([NMeL]I[NMeA][Aze][NMeCha][Sar][hPhe(3-Cl-4-CF3)][X58][Ac5c][NMeGly(cPent)][NMeD]-NMe2; lactam N-11) | 1.9 nM
CCO[C@@H]1C[C@H]2C(=O)NC3(CCC3)C(=O)N(C)[C@@H]([C@@H](C)CC)C(=O)N(C)[C@H](C)CC(=O)N(C)[C@@H](CC(C)C)C(=O)N[C@@H]([C@@H](C)CC)C(=O)N(C)[C@@H](C)C(=O)N3CC[C@H]3C(=O)N(C)[C@@H](Cc3ccc(C(F)(F)F)cc3)C(=O)N(C)CC(=O)N[C@@H](CCc3ccc(C(F)(F)F)c(Cl)c3)C(=O)N2C1 [Compound 99] (cyclo([Ac4c][NMeI][NMedβ3hAla][NMeL]I[NMeA][Aze][NMePhe(4-CF3)][Sar][hPhe(3-Cl-4-CF3)][Hyp](Et))) | 2.9 nM
CC[C@H](C)[C@@H]1NC(=O)[C@H](C)N(C)C(=O)C[C@@H](C)NC(=O)[C@H](C(C)C)N(C)C(=O)C2(CCCC2)NC(=O)[C@@H]2CCCN2C(=O)[C@H](CCc2ccc(C(F)(F)F)c(Cl)c2)NC(=O)[C@@H](C)N(C)C(=O)[C@H](CC2CCCCC2)N(C)C(=O)[C@@H]2CCN2C(=O)[C@@H]2CCN2C1=O [Compound 2013] (cyclo([Ac5c][NMeV][d(β3hA)][NMeA]I[Aze][Aze][NMeCha][dNMeA][hPhe(3-Cl-4-CF3)]P)) | 150 nM
CC[C@H](C)[C@@H]1NC(=O)[C@H](CC(C)C)N(CC)C(=O)C[C@@H](C(=O)N2CCOCC2)N(C)C(=O)[C@H](C2CCCC2)N(C)C(=O)C2(CCCC2)NC(=O)[C@@H]2CCCN2C(=O)[C@H](CCc2ccc(C(F)(F)F)c(Cl)c2)NC(=O)CN(C)C(=O)[C@H](C2CCCC2)N(C)C(=O)[C@@H]2CCN2C(=O)[C@H](C)NC1=O [Compound 1140] ([NEtLeu]IA[Aze][NMeGly(cPent)][Sar][hPhe(3-Cl-4-CF3)]P[Ac5c][NMeGly(cPent)][NMeD]-Morpholide; lactam N-11) | 2 nM
CC[C@H](C)[C@@H]1NC(=O)[C@H](CC(C)C)N(C)C(=O)C[C@@H](C)N(C)C(=O)[C@H](C2CCCC2)N(C)C(=O)C2(CCC2)NC(=O)[C@@H]2CC(F)(F)CN2C(=O)[C@H](CCc2cc(F)c(C(F)(F)F)c(F)c2)NC(=O)CN(C)C(=O)[C@H](Cc2ccc(C(F)(F)F)cc2)N(CC)C(=O)[C@@H]2CCN2C(=O)[C@H](C)N(C)C1=O [Compound 1049] (cyclo([Ac4c][NMeGly(cPent)][NMedβ3hAla][NMeL]I[NMeA][Aze][NEtPhe(4-CF3)][Sar][hPhe(3,5-F2-4-CF3)][Pro(4,4-F2)])) | 3.7 nM
CC[C@H](C)[C@@H]1NC(=O)[C@H](CC(C)C)N(C)C(=O)C[C@@H](C(=O)N2CCCCC2)N(C)C(=O)[C@H](C2CCCCC2)N(C)C(=O)C2(CCCC2)NC(=O)[C@@H]2C[C@H](OCc3cccnc3)CN2C(=O)[C@H](CCc2ccc(C(F)(F)F)c(Cl)c2)NC(=O)CN(C)C(=O)[C@H](CC2CCCCC2)N(C)C(=O)CN(C)C(=O)CN(C)C1=O [Compound 2120] ([NMeL]I[Sar][Sar][NMeCha][Sar][hPhe(3-Cl-4-CF3)][cisHyp](X9)[Ac5c][NMeChg][NMeD]-Piperidide; lactam N-11) | 1 nM
CC[C@H](C)[C@@H]1NC(=O)[C@H](CC(C)C)N(C)C(=O)C[C@@H](C(=O)N2CCOCC2)N(C)C(=O)[C@H](C2CCCC2)N(C)C(=O)C2(CCCC2)NC(=O)[C@H](CCC(=O)N2CCC2)N(C)C(=O)[C@H](CCc2ccc(C(F)(F)F)c(Cl)c2)NC(=O)CN(C)C(=O)[C@H](CC2CCCCC2)N(C)C(=O)[C@@H]2CCN2C(=O)[C@H](C)N(C)C1=O [Compound 2103] ([NMeL]I[NMeA][Aze][NMeCha][Sar][hPhe(3-Cl-4-CF3)][NMeE](Azetidin(1-yl))[Ac5c][NMeGly(cPent)][NMeD]-Morpholide; lactam N-11) | 8.3 nM
CC[C@H](C)[C@@H]1NC(=O)[C@H](C)N(C)C(=O)C[C@@H](C)NC(=O)[C@H](C(C)C)N(C)C(=O)C2(CCCC2)NC(=O)[C@@H]2CCCN2C(=O)[C@H](CCc2ccc(C(F)(F)F)c(Cl)c2)NC(=O)[C@@H](C)N(C)C(=O)[C@H](Cc2ccccc2)N(C)C(=O)[C@@H]2CCCN2C(=O)CN(C)C1=O [Compound 1783] (cyclo([Ac5c][NMeV][d(β3hA)][NMeA]I[Sar]P[NMeF][dNMeA][hPhe(3-Cl-4-CF3)]P)) | 52 nM
CC[C@H](C)[C@@H]1NC(=O)[C@H](C)N(C)C(=O)C[C@@H](C)NC(=O)[C@H](CC(C)C)N(C)C(=O)[C@H](Cc2ccccc2)N(C)C(=O)[C@H](CC(C)C)NC(=O)[C@H](CCc2ccc(C(F)(F)F)c(F)c2)NC(=O)CN(C)C(=O)[C@H](Cc2ccc(Cl)cc2)N(C)C(=O)CN(C)C(=O)CN(C)C1=O [Compound 2093] (cyclo(I[Sar][Sar][NMePhe(4-Cl)][Sar][hPhe(3-F,4-CF3)]L[NMeF][NMeL][d(β3hA)][NMeA])) | 37 nM
CC[C@H](C)[C@@H]1NC(=O)[C@@H]2CCCCN2C(=O)C[C@@H](C)NC(=O)[C@H](CC(C)C)N(C)C(=O)C2(CCCC2)NC(=O)[C@@H]2CCCN2C(=O)[C@H](CCc2ccc(C(F)(F)F)cc2)NC(=O)CN(C)C(=O)[C@H](Cc2ccc(Cl)cc2)N(C)C(=O)CN(C)C(=O)CN(C)C1=O [Compound 227] (cyclo([Ac5c][NMeL][d(β3hA)][Pip]I[Sar][Sar][NMePhe(4-Cl)][Sar][hPhe(4-CF3)]P)) | 82 nM
CC[C@H](C)[C@@H]1NC(=O)[C@H](CC(C)C)N(C)C(=O)C[C@@H](C)N(C)C(=O)[C@H]([C@@H](C)CC)N(C)C(=O)C2(CCCC2)NC(=O)[C@@H]2CCCN2C(=O)[C@H](CCc2ccc(C(F)(F)F)c(F)c2)NC(=O)CN(C)C(=O)[C@H](C2CCCC2)N(C)C(=O)[C@@H]2CCN2C(=O)[C@H](C)N(C)C1=O [Compound 909] (cyclo([Ac5c][NMeI][NMedβ3hAla][NMeL]I[NMeA][Aze][NMeGly(cPent)][Sar][hPhe(3-F,4-CF3)]P)) | 20 nM
CC[C@H](C)[C@@H]1NC(=O)[C@H](CC(C)C)N(C)C(=O)C[C@@H](C)NC(=O)[C@H](C(C)C)N(C)C(=O)C2(CCCC2)NC(=O)[C@@H]2CCCN2C(=O)[C@H](CCc2ccc(C(F)(F)F)c(Cl)c2)NC(=O)CN(C)C(=O)[C@H](Cc2ccc(Cl)cc2)N(C)C(=O)[C@@H]2CCN2C(=O)[C@H](C)N(C)C1=O [Compound 1018] (cyclo([Ac5c][NMeV][d(β3hA)][NMeL]I[NMeA][Aze][NMePhe(4-Cl)][Sar][hPhe(3-Cl-4-CF3)]P)) | 11 nM
CC[C@H](C)[C@@H]1NC(=O)[C@H](C)N(C)C(=O)C[C@@H](C)NC(=O)[C@H](CC(C)C)N(C)C(=O)[C@H](Cc2ccccc2)N(C)C(=O)[C@@H]2C[C@@H](O)CN2C(=O)[C@H](CCc2ccc(C(F)(F)F)cc2)NC(=O)CN(C)C(=O)[C@H](Cc2ccc(Cl)cc2)N(C)C(=O)CN(C)C(=O)CN(C)C1=O [Compound 1375] (cyclo([Hyp][NMeF][NMeL][d(β3hA)][NMeA]I[Sar][Sar][NMePhe(4-Cl)][Sar][hPhe(4-CF3)])) | 9.3 nM
CC[C@H](C)[C@@H]1NC(=O)[C@H](C)N(C)C(=O)C[C@@H](C)NC(=O)[C@H](CC(C)C)N(C)C(=O)[C@H](Cc2ccccc2)N(C)C(=O)[C@H](CC(C)C)NC(=O)[C@H](CCc2cc(Cl)ccc2F)NC(=O)CN(C)C(=O)[C@H](Cc2ccc(Cl)cc2)N(C)C(=O)CN(C)C(=O)CN(C)C1=O [Compound 2094] (cyclo(I[Sar][Sar][NMePhe(4-Cl)][Sar][X29]L[NMeF][NMeL][d(β3hA)][NMeA])) | 200 nM
CC[C@H](C)[C@@H]1NC(=O)[C@H](CC(C)C)N(C)C(=O)C[C@@H](C)NC(=O)[C@H](C(C)C)N(C)C(=O)C2(CCCC2)NC(=O)[C@@H]2CCCN2C(=O)[C@H](CCc2ccc(C(F)(F)F)c(Cl)c2)NC(=O)CN(C)C(=O)[C@H](Cc2ccc(Cl)cc2)N(C)C(=O)[C@@H]2CCN2C(=O)CN(C)C1=O [Compound 207] (cyclo([Ac5c][NMeV][d(β3hA)][NMeL]I[Sar][Aze][NMePhe(4-Cl)][Sar][hPhe(3-Cl-4-CF3)]P)) | 3 nM
CC[C@H](C)[C@@H]1NC(=O)[C@H](CC(C)C)N(C)C(=O)C[C@@H](C(=O)N2CCCCC2)N(C)C(=O)[C@H](CC(C)C)N(C)C(=O)C2(CCCC2)NC(=O)[C@@H]2C[C@@H](OCc3cccc(C)c3)CN2C(=O)[C@H](CCc2ccc(C(F)(F)F)c(F)c2)NC(=O)CN(C)C(=O)[C@H](CC2CCCCC2)N(C)C(=O)CN(C)C(=O)CN(C)C1=O [Compound 2125] ([NMeL]I[Sar][Sar][NMeCha][Sar][hPhe(3-F,4-CF3)][Hyp](mXylylene)[Ac5c][NMeL][NMeD]-Piperidide; lactam N-11) | 16 nM
CC[C@H](C)[C@@H]1NC(=O)[C@H](CC(C)C)N(C)C(=O)C[C@@H](C(=O)N2CCCCC2)N(C)C(=O)[C@H](C2CCCCC2)N(C)C(=O)C2(CCCC2)NC(=O)[C@@H]2C[C@H](c3ccccc3)CN2C(=O)[C@H](CCc2ccc(C(F)(F)F)c(Cl)c2)NC(=O)CN(C)C(=O)[C@H](CC2CCCCC2)N(C)C(=O)[C@@H]2CCN2C(=O)CN(C)C1=O [Compound 960] ([NMeL]I[Sar][Aze][NMeCha][Sar][hPhe(3-Cl-4-CF3)][Pro(cis-4-Ph)][Ac5c][NMeChg][NMeD]-Piperidide; lactam N-11) | 7.9 nM
